Source: patent US11680086B2, “Lipopeptide for potently inhibiting HIV, derivative thereof, pharmaceutical composition thereof and use thereof” (Institute of Pathogen Biology, Chinese Academy of Medical …, priority 2017, dated 2023)
pIC50: −log10 of the molar value. Peptide text beside a SMILES is read from it. * marks the point of attachment. X1 = Cc1c(C)c2c(c(C)c1OC(=O)CCC(=O)*)CCC(C)(CCCC(C)CCCC(C)CCCC(C)C)O2; Stearoyl = CCCCCCCCCCCCCCCCCC(=O)*; Palmitoyl = CCCCCCCCCCCCCCCC(=O)*

Key:
[1] = system: 35 HIV-1 pseudoviruses (subtypes A, B, B', C, G, A/C, A/E, B/C); settings: for pIC50: read-out: average IC50 for inhibition of various types of HIV-1 pseudoviruses, average over 35 pseudoviruses; for inhibitory activity against different subtypes of HIV-1 as folds of T-20: relative to T-20, from average IC50
Description: HIV-1 pseudovirus-mediated cell entry inhibition assay: basic steps included: (1) Preparation of HIV-1 pseudovirus: the 293T cells were co-transfected with a plasmid expressing the envelope protein (Env) of HIV-1 strain NL4-3 (i.e., a recombinant expression plasmid obtained by inserting the gene encoding the envelope protein (ENV) of the D36G mutant of the HIV-1 strain NL4-3 in the Table 2 of the Reference 14 listed in the Background Art into the vector pcDNA3.1(−)) and the HIV-1 backbone plasmid pSG3Δenv (provided by the AIDS Reagent Program of National Institutes of Health (NIH), catalog number: 11051) by using a cell transfection reagent, incubated in a cell incubator of 37° C. and 5% CO2 for 6 hours, and then the medium was changed, and the cells were further incubated for 48 hours. The cell culture supernatant containing pseudovirus particles was pipetted and filtered with a 0.45 μm filter to collect the supernatant, then 20% fetal bovine serum (FBS) was added thereto, the final solution was transferred to a polypropylene tube, and stored at −80° C. for ready for use or directly subjected to virus titration. (2) Titration of HIV-1 pseudovirus: the viruses were diluted by 5 folds in a 96-well plate, and 4 replicate wells with 8 gradients were set to a final volume of 100 microliters. The TZM-b1 cells were trypsinized and counted, and the cells were diluted to 1×10^5 cells/ml with DMEM complete medium; 100 μl of cells dilution (containing 15 μg/ml DEAE-dextran) per well were added and cultured at 37° C. and 5% CO2 for 48 hours. The 96-well plate was then taken from the cell culture incubator. The supernatant was discarded from the wells. To each well, 30 μl of a cell lysate was added, and after 10 minutes, 100 μl of a luciferase detection reagent was added. 100 μl of liquid was pipetted from each well and added to a corresponding 96-well white plate, and the luminescence values were read by a microplate photometer. The virus titer was calculated by the Reed-Muench method. (3) Antiviral activity assay: the test substance was dissolved in DMSO and diluted with a cell culture solution by 3 folds, and placed in a 96-well plate at a final volume of […]. 50 μl of a DMEM medium was used in place of the test substance as a negative control. To each well, 100 μl of TZM-b1 target cells solution (containing 15 μg/ml DEAE-dextran) at a concentration of 1×10^5 cells/ml was added, and then 50 μl (corresponding to 100 TCID50 per well) of the HIV-1 pseudovirus obtained above was added. After incubation at 37° C. and 5% CO2 for 48 hours, the relative light units (RLU) of each well were determined by using a luciferase detection reagent (Promega). Inhibition rate (%) and IC50 value were calculated.
Among them, the A, B and C subtypes were the main viruses causing AIDS epidemic in the world, while B/C and A/E recombinant viruses were the main viruses in China. […] Among the Env expression plasmids used for the preparation of pseudoviral, except that the Env expression plasmids used for preparation of PVO, Du156 and CAP 210.2.00.E8 were obtained from the AIDS Reagent Program of NIH in the United states, other plasmids were preserved by the laboratory of Prof. He Yuxian, Institute of Pathogen Biology, Chinese Academy of Medical Sciences, please see the References 13, 14 and 18 listed in the Background Art and articles of Chong et al. (Chong H, Yao X, Zhang C, Cai L, Cui S, Wang Y, He Y. Biophysical property and broad anti-HIV activity of Albuvirtide, a 3-maleimimidoproprotionic acid-modified peptide fusion inhibitor. PLoS One, 2012; 7 (3): e 32599). The preparation of the pseudovirus and the antiviral assay were the same as those in Example 2.1 of Example 2 (HIV-1 pseudovirus-mediated cell entry inhibition assay).

[2] = system: NL4-3 pseudovirus carrying T-20 resistance mutation site of NHR; assay: inhibition of T-20 resistant strains; type: cell-based, HIV-1; settings: strains with single or double mutations
[3] = system: HXB2-mediated cell fusion (HL2/3 effector cells, TZM-b1 target cells); type: cell-based, HIV-1; settings: HXB2-mediated cell fusion
Procedure: HIV-1 mediated cell fusion inhibition assay: the effector cells (HL2/3 cells) and target cells (TZM-b1 cells) were provided by the AIDS Reagent Program of National Institutes of Health (NIH) (catalog numbers: 1294 and 8129, respectively). The both cells were adherent cells and were cultured in a DMEM cell culture medium containing ampicillin/streptomycin double antibiotics and 10% fetal bovine serum (FBS). The TZM-b1 was first added to a 96-well cell culture plate (1×10^4 cells/well), and cultured overnight at 37° C. and 5% CO2. The test substance was diluted with the DMEM cell culture medium by 3 folds and mixed with HL2/3 effector cells (3×10^4 cells/well), then added to the TZM-b1 target cells, and further cultured for 6 hours to fully fuse. The activity of luciferase (relative fluorescence units, RLU) was then determined using a luciferase reporter gene kit from Promega company according to the instructions. The inhibition rate of each sample at each concentration was calculated, and the half effective inhibitory concentration (IC50 value) was calculated using GraphPad Prism Software 2.01.

[4] = system: HIV-1 strain NL4-3 pseudovirus (D36G mutant); type: cell-based
Procedure: The supernatant was discarded from the wells. […] Inhibition rate (%) and IC50 value were calculated.

HIV-1 strain JRCSF = type: cell-based
Procedure: Inhibition rate (%) and IC50 value were calculated.

Row | Compound | pIC50 [1] | inhibitory activity against different subtypes of HIV-1 as folds of T-20 [1] | inhibitory activity against T-20 resistant strains (in words) [2] | inhibitory activity further improved, folds ([3]; relative to LP-50) | inhibitory activity as folds of that of T-20 ([3]; relative to T-20) | inhibitory activity as folds of that of T-20 ([4]; NL4-3 pseudovirus entry, relative to T-20) | inhibitory activity further improved, folds ([4]; NL4-3 pseudovirus, relative to LP-50) | inhibitory activity as folds of that of T-20 (HIV-1 strain JRCSF; JRCSF replication, relative to T-20) | inhibitory activity further improved, folds (HIV-1 strain JRCSF; replicative JRCSF virus, relative to LP-50)
1 | CCCCCCCCCCCCCCCC(=O)NCCCC[C@H](NC(=O)[C@H](CCC(=O)O)NC(=O)[C@H](CC(C)C)NC(=O)[C@H](CCCCN)NC(=O)[C@H](CCCCN)NC(=O)[C@H](CC(C)C)NC(=O)[C@H](CCC(=O)O)NC(=O)[C@H](CCC(=O)O)NC(=O)[C@H](CCC(=O)O)NC(=O)[C@H](CC(N)=O)NC(=O)[C@H](CCCCN)NC(=O)[C@H](CCCCN)NC(=O)[C@H](CCC(N)=O)NC(=O)[C@H](CCC(N)=O)NC(=O)[C@H](CCC(=O)O)NC(=O)[C@H](CCC(=O)O)NC(=O)[C@H](C)NC(=O)[C@H](CCCCN)NC(=O)[C@H](CCCCN)NC(=O)[C@H](CC(C)C)NC(=O)[C@H](CC(C)C)NC(=O)[C@H](CCC(=O)O)NC(=O)[C@H](CCC(=O)O)NC(=O)[C@@H](NC(=O)[C@H](CC(N)=O)NC(=O)[C@H](C)NC(=O)[C@H](CCC(=O)O)NC(=O)[C@H](CC(C)C)NC(C)=O)[C@@H](C)CC)C(N)=O [LP-51] (Ac-LEANIEELLKKAEEQQKKNEEELKKLEK(Palmitoyl)-NH2) | 10.48 | 1255 folds | thousands to tens of thousands of times better than that of the LP-40 | – | – | – | – | – | –
2 | CCCCCCCCCCCCCCCC(=O)NCCCC[C@H](NC(=O)[C@H](CCC(=O)O)NC(=O)[C@H](CC(C)C)NC(=O)[C@H](CCCCN)NC(=O)[C@H](CCCCN)NC(=O)[C@H](CC(C)C)NC(=O)[C@H](CCC(=O)O)NC(=O)[C@H](CCC(=O)O)NC(=O)[C@H](CCC(=O)O)NC(=O)[C@H](CC(N)=O)NC(=O)[C@H](CCCCN)NC(=O)[C@H](CCCCN)NC(=O)[C@H](CCC(N)=O)NC(=O)[C@H](CCC(N)=O)NC(=O)[C@H](CCC(=O)O)NC(=O)[C@H](CCC(=O)O)NC(=O)[C@H](C)NC(=O)[C@H](CCCCN)NC(=O)[C@H](CCCCN)NC(=O)[C@H](CC(C)C)NC(=O)[C@H](CC(C)C)NC(=O)[C@H](CCC(=O)O)NC(=O)[C@H](CCC(=O)O)NC(=O)[C@@H](NC(=O)[C@H](CCCCN)NC(=O)[C@H](CCC(N)=O)NC(=O)[C@H](CCC(=O)O)NC(=O)[C@H](Cc1c[nH]c2ccccc12)NC(C)=O)[C@@H](C)CC)C(N)=O [LP-52] (Ac-WEQKIEELLKKAEEQQKKNEEELKKLEK(Palmitoyl)-NH2) | 10.80 | 2588 folds | thousands to tens of thousands of times better than that of the LP-40 | about 2 folds | 1859 folds | 2353 folds | about 2 folds | 1038 folds | ~5 folds
3 | CC[C@H](C)[C@H](NC(=O)[C@H](CCCCN)NC(=O)[C@H](CCC(N)=O)NC(=O)[C@H](CCC(=O)O)NC(=O)[C@H](Cc1c[nH]c2ccccc12)NC(C)=O)C(=O)N[C@@H](CCC(=O)O)C(=O)N[C@@H](CCC(=O)O)C(=O)N[C@@H](CC(C)C)C(=O)N[C@@H](CC(C)C)C(=O)N[C@@H](CCCCN)C(=O)N[C@@H](CCCCN)C(=O)N[C@@H](C)C(=O)N[C@@H](CCC(=O)O)C(=O)N[C@@H](CCC(=O)O)C(=O)N[C@@H](CCC(N)=O)C(=O)N[C@@H](CCC(N)=O)C(=O)N[C@@H](CCCCN)C(=O)N[C@@H](CCCCN)C(=O)N[C@@H](CC(N)=O)C(=O)N[C@@H](CCC(=O)O)C(=O)N[C@@H](CCC(=O)O)C(=O)N[C@@H](CCC(=O)O)C(=O)N[C@@H](CC(C)C)C(=O)N[C@@H](CCCCN)C(=O)N[C@@H](CCCCN)C(=O)N[C@@H](CC(C)C)C(=O)N[C@@H](CCC(=O)O)C(=O)N[C@@H](CCCCNC(=O)CCC(=O)Oc1c(C)c(C)c2c(c1C)CCC(C)(CCCC(C)CCCC(C)CCCC(C)C)O2)C(N)=O (some centres unmarked) [LP-85] (Ac-WEQKIEELLKKAEEQQKKNEEELKKLEK(X1)-NH2) | – | 941 folds | thousands to tens of thousands of times better than that of the LP-40 | – | – | – | – | – | –
4 | CCCCCCCCCCCCCCCCCC(=O)NCCCC[C@H](NC(=O)[C@H](CCC(=O)O)NC(=O)[C@H](CC(C)C)NC(=O)[C@H](CCCCN)NC(=O)[C@H](CCCCN)NC(=O)[C@H](CC(C)C)NC(=O)[C@H](CCC(=O)O)NC(=O)[C@H](CCC(=O)O)NC(=O)[C@H](CCC(=O)O)NC(=O)[C@H](CC(N)=O)NC(=O)[C@H](CCCCN)NC(=O)[C@H](CCCCN)NC(=O)[C@H](CCC(N)=O)NC(=O)[C@H](CCC(N)=O)NC(=O)[C@H](CCC(=O)O)NC(=O)[C@H](CCC(=O)O)NC(=O)[C@H](C)NC(=O)[C@H](CCCCN)NC(=O)[C@H](CCCCN)NC(=O)[C@H](CC(C)C)NC(=O)[C@H](CC(C)C)NC(=O)[C@H](CCC(=O)O)NC(=O)[C@H](CCC(=O)O)NC(=O)[C@@H](NC(C)=O)[C@@H](C)CC)C(N)=O [LP-90] (Ac-IEELLKKAEEQQKKNEEELKKLEK(Stearoyl)-NH2) | 10.85 | 2958 folds | much lower active against T-20 resistant mutant strains than the LP-52 and LP-80 | – | – | – | – | – | –
